Assay results reported in ChEMBL document CHEMBL4229413, “Identification by Inverse Virtual Screening of magnolol-based scaffold as new tankyrase-2 inhibitors” (Bioorg Med Chem, 2018).
Active and inactive are the calls of the source. The rule behind the calls is not given here.

What was measured:
[1] = system: A549
Description: (§1) Growth inhibition of human A549 cells after 72 hrs by MTT assay

[2] = target: Casein kinase II alpha/beta (Homo sapiens, UniProt P67870+P68400); assay: Binding affinity to recombinant human CK2alpha/beta expressed in Escherichia coli by surface plasmon resonance analysis
Chain of Casein kinase II alpha/beta (P67870 whole entry): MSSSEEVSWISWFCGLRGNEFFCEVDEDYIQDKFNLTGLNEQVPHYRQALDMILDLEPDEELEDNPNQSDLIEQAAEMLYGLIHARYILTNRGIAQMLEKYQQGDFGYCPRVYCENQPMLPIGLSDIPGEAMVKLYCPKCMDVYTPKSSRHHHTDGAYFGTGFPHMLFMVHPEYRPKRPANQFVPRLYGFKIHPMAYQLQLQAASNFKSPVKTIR
Chain of Casein kinase II alpha/beta (P68400 whole entry): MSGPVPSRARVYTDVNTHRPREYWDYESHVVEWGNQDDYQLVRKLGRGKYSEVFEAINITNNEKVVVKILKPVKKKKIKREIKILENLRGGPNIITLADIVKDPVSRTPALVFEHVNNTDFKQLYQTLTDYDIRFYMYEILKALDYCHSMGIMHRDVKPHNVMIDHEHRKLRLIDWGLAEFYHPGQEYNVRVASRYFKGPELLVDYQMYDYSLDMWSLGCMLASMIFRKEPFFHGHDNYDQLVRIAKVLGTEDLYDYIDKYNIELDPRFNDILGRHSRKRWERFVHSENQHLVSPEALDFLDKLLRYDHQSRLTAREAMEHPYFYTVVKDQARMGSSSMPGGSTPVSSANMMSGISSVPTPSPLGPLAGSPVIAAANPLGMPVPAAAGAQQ

[3] = target: Poly [ADP-ribose] polymerase 1 (Homo sapiens, UniProt P09874); assay: Binding affinity to recombinant human PARP1 expressed in baculovirus infected Sf9 cells by surface plasmon resonance analysis
Chain of Poly [ADP-ribose] polymerase 1 (P09874 whole entry): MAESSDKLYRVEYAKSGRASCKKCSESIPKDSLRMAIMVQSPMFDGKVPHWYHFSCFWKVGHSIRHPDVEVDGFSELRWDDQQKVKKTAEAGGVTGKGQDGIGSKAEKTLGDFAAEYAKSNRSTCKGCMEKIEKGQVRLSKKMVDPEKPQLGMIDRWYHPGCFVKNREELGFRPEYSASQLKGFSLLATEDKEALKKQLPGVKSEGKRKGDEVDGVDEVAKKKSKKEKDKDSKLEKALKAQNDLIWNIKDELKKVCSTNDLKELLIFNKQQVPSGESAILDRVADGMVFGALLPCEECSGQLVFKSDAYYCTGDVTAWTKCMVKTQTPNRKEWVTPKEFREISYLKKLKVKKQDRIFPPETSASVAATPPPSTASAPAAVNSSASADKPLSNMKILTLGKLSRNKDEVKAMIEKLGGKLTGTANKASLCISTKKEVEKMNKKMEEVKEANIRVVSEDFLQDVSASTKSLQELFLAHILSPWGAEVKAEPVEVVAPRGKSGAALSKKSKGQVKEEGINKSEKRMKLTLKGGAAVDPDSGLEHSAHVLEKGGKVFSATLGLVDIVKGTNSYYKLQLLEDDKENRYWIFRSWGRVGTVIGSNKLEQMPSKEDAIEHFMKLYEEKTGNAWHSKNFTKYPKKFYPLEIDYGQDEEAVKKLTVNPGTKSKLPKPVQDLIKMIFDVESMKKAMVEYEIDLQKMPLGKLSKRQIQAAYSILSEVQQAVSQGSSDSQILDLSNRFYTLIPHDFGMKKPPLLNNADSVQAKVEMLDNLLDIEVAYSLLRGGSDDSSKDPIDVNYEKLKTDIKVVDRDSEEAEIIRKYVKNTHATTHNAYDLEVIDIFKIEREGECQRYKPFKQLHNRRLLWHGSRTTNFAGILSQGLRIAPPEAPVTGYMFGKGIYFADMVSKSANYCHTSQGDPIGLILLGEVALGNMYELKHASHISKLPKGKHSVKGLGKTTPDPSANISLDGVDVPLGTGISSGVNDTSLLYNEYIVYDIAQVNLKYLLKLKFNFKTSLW

[4] = target: T1, Bromodomain-containing protein 9 (Homo sapiens) (UniProt Q9H8M2); assay: Binding affinity to BRD9 (unknown origin) by surface plasmon resonance analysis
T1 sequence (whole entry): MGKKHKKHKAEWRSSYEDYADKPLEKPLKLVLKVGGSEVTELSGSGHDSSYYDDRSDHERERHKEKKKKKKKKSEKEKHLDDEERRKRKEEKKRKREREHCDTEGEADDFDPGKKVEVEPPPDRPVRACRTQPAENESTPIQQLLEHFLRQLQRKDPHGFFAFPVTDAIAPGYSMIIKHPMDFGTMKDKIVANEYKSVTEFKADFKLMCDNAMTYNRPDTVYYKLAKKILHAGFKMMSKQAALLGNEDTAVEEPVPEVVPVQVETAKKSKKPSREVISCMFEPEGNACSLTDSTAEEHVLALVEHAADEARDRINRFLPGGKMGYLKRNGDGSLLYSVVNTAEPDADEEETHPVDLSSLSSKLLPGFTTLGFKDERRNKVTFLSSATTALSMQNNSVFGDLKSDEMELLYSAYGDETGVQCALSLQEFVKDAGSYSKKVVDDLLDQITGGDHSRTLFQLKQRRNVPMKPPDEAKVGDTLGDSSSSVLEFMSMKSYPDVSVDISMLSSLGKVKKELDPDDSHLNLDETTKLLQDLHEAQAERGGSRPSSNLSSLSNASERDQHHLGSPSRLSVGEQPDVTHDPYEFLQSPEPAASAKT

[5] = system: A549; assay: Antiproliferative activity against human A549 cells assessed as effect on cell viability at 100 uM after 72 hrs by MTT assay relative to control; format: functional
[6] = target: T2, Poly [ADP-ribose] polymerase tankyrase-1 (Homo sapiens, UniProt O95271); assay: Binding affinity to recombinant human N-terminal GSt-tagged TNKS1 (1000 to 1328 residues) expressed in baculovirus infected Sf9 cells by surface plasmon resonance analysis
T2 sequence (O95271 whole entry): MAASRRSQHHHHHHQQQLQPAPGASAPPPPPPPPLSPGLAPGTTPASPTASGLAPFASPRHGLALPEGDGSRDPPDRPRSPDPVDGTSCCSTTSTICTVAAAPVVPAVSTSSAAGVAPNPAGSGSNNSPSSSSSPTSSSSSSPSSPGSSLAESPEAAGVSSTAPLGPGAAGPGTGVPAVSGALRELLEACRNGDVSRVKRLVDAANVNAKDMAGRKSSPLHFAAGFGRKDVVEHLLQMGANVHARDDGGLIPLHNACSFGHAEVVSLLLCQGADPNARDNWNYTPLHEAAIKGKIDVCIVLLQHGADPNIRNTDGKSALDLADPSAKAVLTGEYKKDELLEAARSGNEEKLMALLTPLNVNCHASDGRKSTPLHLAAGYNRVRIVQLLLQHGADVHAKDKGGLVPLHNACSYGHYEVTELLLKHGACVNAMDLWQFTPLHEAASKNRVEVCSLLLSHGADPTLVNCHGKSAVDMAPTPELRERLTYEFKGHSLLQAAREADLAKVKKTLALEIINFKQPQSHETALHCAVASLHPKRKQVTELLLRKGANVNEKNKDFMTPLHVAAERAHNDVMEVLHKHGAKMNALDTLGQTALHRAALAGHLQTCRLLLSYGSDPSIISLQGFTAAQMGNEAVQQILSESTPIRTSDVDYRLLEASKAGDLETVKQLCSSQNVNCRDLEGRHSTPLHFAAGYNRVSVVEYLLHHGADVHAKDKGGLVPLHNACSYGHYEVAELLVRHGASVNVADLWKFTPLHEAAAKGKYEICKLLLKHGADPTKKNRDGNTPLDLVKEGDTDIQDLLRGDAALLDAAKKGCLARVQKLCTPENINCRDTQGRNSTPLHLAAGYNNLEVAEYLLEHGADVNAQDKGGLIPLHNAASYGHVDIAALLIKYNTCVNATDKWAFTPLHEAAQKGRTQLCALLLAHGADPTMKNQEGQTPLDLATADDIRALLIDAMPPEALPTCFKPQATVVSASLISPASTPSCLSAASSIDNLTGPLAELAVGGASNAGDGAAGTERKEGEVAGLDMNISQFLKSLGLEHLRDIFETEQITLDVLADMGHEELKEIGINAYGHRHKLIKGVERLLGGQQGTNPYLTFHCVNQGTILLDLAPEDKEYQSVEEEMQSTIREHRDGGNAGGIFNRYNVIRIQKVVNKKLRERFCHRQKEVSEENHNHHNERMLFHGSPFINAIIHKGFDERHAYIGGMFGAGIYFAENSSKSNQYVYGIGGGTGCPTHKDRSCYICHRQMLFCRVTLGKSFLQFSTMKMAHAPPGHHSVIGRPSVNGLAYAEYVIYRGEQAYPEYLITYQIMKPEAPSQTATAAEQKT

[7] = target: T3, Poly [ADP-ribose] polymerase tankyrase-2 (Homo sapiens, UniProt Q9H2K2); assay: Binding affinity to recombinant human N-terminal His-tagged TNKS2 (Ser959 to Gly1166 residues) expressed in Escherichia coli by surface plasmon resonance analysis
T3 sequence (Q9H2K2 whole entry): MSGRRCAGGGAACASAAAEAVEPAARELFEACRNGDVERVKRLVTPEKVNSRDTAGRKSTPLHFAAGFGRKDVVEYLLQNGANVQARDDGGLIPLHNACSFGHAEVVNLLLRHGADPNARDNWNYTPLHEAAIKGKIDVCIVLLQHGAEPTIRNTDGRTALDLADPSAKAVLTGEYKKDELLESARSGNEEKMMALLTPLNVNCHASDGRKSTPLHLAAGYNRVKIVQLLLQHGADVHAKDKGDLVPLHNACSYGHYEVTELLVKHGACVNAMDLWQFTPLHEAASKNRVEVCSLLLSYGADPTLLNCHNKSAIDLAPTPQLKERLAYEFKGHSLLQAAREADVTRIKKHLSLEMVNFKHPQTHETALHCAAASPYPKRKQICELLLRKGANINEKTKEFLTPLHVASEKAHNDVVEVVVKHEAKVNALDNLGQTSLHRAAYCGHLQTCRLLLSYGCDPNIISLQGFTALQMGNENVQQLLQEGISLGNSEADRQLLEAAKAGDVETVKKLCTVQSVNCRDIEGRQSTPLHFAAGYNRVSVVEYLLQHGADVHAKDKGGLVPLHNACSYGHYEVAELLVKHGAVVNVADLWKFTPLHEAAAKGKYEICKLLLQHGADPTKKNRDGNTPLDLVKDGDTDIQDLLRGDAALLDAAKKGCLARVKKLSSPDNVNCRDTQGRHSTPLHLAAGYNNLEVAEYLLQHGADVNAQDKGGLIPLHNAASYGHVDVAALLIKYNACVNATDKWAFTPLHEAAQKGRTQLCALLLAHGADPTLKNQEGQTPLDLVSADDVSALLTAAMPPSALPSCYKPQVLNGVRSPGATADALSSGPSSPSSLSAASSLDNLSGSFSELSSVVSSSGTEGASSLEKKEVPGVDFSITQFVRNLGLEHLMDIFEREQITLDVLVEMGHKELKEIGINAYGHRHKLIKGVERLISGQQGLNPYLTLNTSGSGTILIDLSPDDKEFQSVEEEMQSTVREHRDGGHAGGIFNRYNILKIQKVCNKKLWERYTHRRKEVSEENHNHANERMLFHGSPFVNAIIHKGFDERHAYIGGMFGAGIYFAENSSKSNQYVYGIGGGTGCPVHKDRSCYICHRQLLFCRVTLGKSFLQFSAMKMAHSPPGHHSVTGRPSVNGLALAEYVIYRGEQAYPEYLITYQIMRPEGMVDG

[8] = system: A549; assay: cells; settings: Homo sapiens, A549, 72 h
Description: as §1

| Compound | IC50 [1] | Kd [2] | Kd ([3]; sf9) | Activity [4] | Kd ([6]; sf9) | Kd ([7]; read-out: Kd) [nM] | Kd [7] | IC50 [8] [nM] | Kd ([3]; read-out: Kd) [nM] | Kd ([6]; read-out: Kd) [nM] | Activity [5] |
| --- | --- | --- | --- | --- | --- | --- | --- | --- | --- | --- | --- |
| C=CCc1ccc(O)c(-c2cc(CC=C)ccc2O)c1 [MAGNOLOL] |  | Not Active | Not Active | inactive | Not Active |  | Not Active |  |  |  |  |
| COc1cc(CCCOC(C)=O)cc(-c2cc(CCCOC(C)=O)cc(OC)c2O)c1O | Not Active | Not Active | Not Active | inactive | Not Active | 6.5 |  |  |  |  | 20 - 30% |

Continued, in another order:

| IC50 [1] | Kd [2] | Kd ([3]; sf9) | Activity [4] | Kd ([6]; sf9) | Kd ([7]; read-out: Kd) [nM] | Kd [7] | IC50 [8] [nM] | Kd ([3]; read-out: Kd) [nM] | Kd ([6]; read-out: Kd) [nM] | Compound | Activity [5] |
| --- | --- | --- | --- | --- | --- | --- | --- | --- | --- | --- | --- |
| Not Active | Not Active | Not Active | inactive | Not Active | 18.5 |  |  |  |  | COc1cc(CCCO)cc(-c2cc(CCCO)cc(OC)c2O)c1O | 20 - 30% |
|  |  |  |  |  |  |  | 12300 |  |  | Oc1nc(-c2ccc(C(F)(F)F)cc2)nc2c1CSCC2 |  |
|  | Not Active |  | inactive |  |  | Not Active |  | 1250 | 5260 | C=CCc1ccc(O)c(-c2cc(CC=C)cc(O)c2O)c1 |  |
|  | Not Active | Not Active | inactive |  | 21 |  | 4700 |  | 520 | C=CCc1cc(O)c(O)c(-c2cc(CC=C)cc(OC)c2O)c1 |  |
